Measurements: patent publication US20250230193A1, “CYCLIC COMPOUND HAVING SELECTIVE KRAS INHIBITORY EFFECT ON HRAS AND NRAS” (CHUGAI SEIYAKU KABUSHIKI KAISHA, priority 2022, published 2025)
Where a SMILES comes first, the peptide text is derived from it. Bridges are numbered along the chain shown (N, C = ends). [ ]: non-standard residue; d: D form. hPhe(3-Cl-4-CF3) = N[C@@H](CCc1ccc(C(F)(F)F)c(Cl)c1)C(=O)O; NPrPhe(4-CF3) = CCCN[C@@H](Cc1ccc(C(F)(F)F)cc1)C(=O)O; NMeGly(cPent) = CN[C@H](C(=O)O)C1CCCC1; NMeD = CN[C@@H](CC(=O)O)C(=O)O; NMeL = CN[C@@H](CC(C)C)C(=O)O; NMeA = CN[C@@H](C)C(=O)O; Aze = O=C(O)[C@@H]1CCN1; Ac4c = NC1(C(=O)O)CCC1; Sar = CNCC(=O)O

Columns and labels:
[1] = molecular target: GDP-bound NRAS wild-type protein (Homo sapiens, UniProt P01111); experiment: Binding to NRAS by surface plasmon resonance (SPR), Single Cycle Kinetics
[2] = molecular target: GDP-bound HRAS wild-type protein (Homo sapiens, UniProt P01112); experiment: Binding to HRAS by surface plasmon resonance (SPR), Single Cycle Kinetics
[3] = KD ratio, GDP-bound NRAS wild-type vs GDP-bound KRAS wild-type, SPR
[4] = KD ratio, GDP-bound HRAS wild-type vs GDP-bound KRAS wild-type, SPR

Sequence of GDP-bound NRAS wild-type protein (P01111 whole entry): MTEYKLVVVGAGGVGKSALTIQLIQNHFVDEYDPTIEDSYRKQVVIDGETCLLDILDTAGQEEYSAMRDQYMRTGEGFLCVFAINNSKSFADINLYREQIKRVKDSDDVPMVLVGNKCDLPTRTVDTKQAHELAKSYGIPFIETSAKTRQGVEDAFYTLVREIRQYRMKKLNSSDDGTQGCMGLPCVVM
Sequence of GDP-bound HRAS wild-type protein (P01112 whole entry): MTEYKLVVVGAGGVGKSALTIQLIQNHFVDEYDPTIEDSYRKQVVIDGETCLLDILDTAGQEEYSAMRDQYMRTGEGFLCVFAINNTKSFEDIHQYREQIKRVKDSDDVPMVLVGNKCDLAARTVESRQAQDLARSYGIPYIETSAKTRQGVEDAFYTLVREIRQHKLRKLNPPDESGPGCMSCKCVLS

Structure (SMILES): CCCN1C(=O)[C@@H]2CCN2C(=O)[C@H](C)N(C)C(=O)[C@H]([C@@H](C)CC)NC(=O)[C@H](CC(C)C)N(C)C(=O)C[C@@H](C(=O)N(C)C)N(C)C(=O)[C@H](C2CCCC2)N(C)C(=O)C2(CCC2)NC(=O)[C@@H]2CCCN2C(=O)[C@H](CCc2ccc(C(F)(F)F)c(Cl)c2)NC(=O)CN(C)C(=O)[C@@H]1Cc1ccc(C(F)(F)F)cc1 [PP0435] ([NMeL]I[NMeA][Aze][NPrPhe(4-CF3)][Sar][hPhe(3-Cl-4-CF3)]P[Ac4c][NMeGly(cPent)][NMeD]-NMe2; lactam N-11)
- NRAS/KRAS (ratio of KD value with respect to GDP-bound NRAS wild-type protein to KD value with respect to KRAS) ([1]; SPR): C (A compound having a KD ratio of 0.1 or more and less than 3 is denoted as C)
- HRAS/KRAS (ratio of KD value with respect to GDP-bound HRAS wild-type protein to KD value with respect to KRAS) ([2]; SPR): C (A compound having a KD ratio of 0.1 or more and less than 3 is denoted as C)

Structure (SMILES): CCO[C@@H]1C[C@H]2C(=O)NC3(CCCC3)C(=O)N(C)[C@@H](C3CCCC3)C(=O)N(C)[C@H](C(=O)N(C)C)CC(=O)N(C)[C@@H](CC(C)C)C(=O)N[C@@H]([C@@H](C)CC)C(=O)N(C)CC(=O)N(C)[C@H]3CCCCCN(C3=O)[C@@H](Cc3ccc(C(F)(F)F)cc3)C(=O)N(C)CC(=O)N[C@@H](CCc3cc(F)c(C(F)(F)F)c(F)c3)C(=O)N2C1 [PP0468]
- NRAS/KRAS (ratio of KD value with respect to GDP-bound NRAS wild-type protein to KD value with respect to KRAS) ([1]; SPR): B (a compound having 3 or more and less than 10 is denoted as B)
- HRAS/KRAS (ratio of KD value with respect to GDP-bound HRAS wild-type protein to KD value with respect to KRAS) ([2]; SPR): B (a compound having 3 or more and less than 10 is denoted as B)

Structure (SMILES): CCO[C@@H]1C[C@H]2C(=O)NC3(CC(C)(C)C3)C(=O)N(C)[C@@H](C3CCCC3)C(=O)N(C)[C@H](C(=O)N(C)C)CC(=O)N(CC)[C@@H](CC(C)C)C(=O)N[C@@H]([C@@H](C)CC)C(=O)NCC(=O)N(C)[C@H]3C/C=C\CCN(C3=O)[C@@H](Cc3ccc(C(F)(F)F)cc3)C(=O)N(C)CC(=O)N[C@@H](CCc3cc(F)c(C(F)(F)F)c(F)c3)C(=O)N2C1 [PP1772]
- NRAS/KRAS (ratio of KD value for NRAS to KD value for KRAS) [1, 3]: B (a compound having 3 or more and less than 10 is denoted as B)
- HRAS/KRAS (ratio of KD value for HRAS to KD value for KRAS) [2, 4]: B (a compound having 3 or more and less than 10 is denoted as B)

Structure (SMILES): CCC[C@H]1C(=O)N[C@@H]([C@@H](C)CC)C(=O)N(C)CC(=O)N(C)[C@H]2C/C=C\CCN(C2=O)[C@@H](Cc2ccc(C(F)(F)F)cc2)C(=O)N(C)CC(=O)N[C@@H](CCc2cc(F)c(C(F)(F)F)c(F)c2)C(=O)N2C[C@H](OCC)C[C@H]2C(=O)NC2(CC(C)(C)C2)C(=O)N(C)[C@@H](CC2CC2)C(=O)N(C)[C@H](C(=O)N(C)C)CC(=O)N1C [PP2807]
- NRAS/KRAS (ratio of KD value with respect to GDP-bound NRAS wild-type protein to KD value with respect to KRAS) ([1]; class symbols): AA (a compound having 20 or more is denoted as AA)
- HRAS/KRAS (ratio of KD value with respect to GDP-bound HRAS wild-type protein to KD value with respect to KRAS) ([2]; class symbols): A (a compound having 10 or more and less than 20 is denoted as A)

Structure (SMILES): CCO[C@@H]1C[C@H]2C(=O)NC3(CCC3)C(=O)N(C)[C@@H](C3CCCC3)C(=O)N(C)[C@H](C(=O)N(C)CCOC)CC(=O)N(C)[C@@H](CC(C)C)C(=O)N[C@@H]([C@@H](C)CC)C(=O)N(C)CC(=O)N(C)[C@H]3C/C=C\CCN(C3=O)[C@@H](Cc3ccc(C(F)(F)F)cc3)C(=O)N(C)CC(=O)N[C@@H](CCc3ccc(C(F)(F)F)c(OC)c3)C(=O)N2C1 [PP1324]
- NRAS/KRAS (ratio of KD value for GDP-bound NRAS wild-type protein to KD value for KRAS) ([1]; SPR, KD ratio class): A (a compound having 10 or more and less than 20 is denoted as A)
- HRAS/KRAS (ratio of KD value for GDP-bound HRAS wild-type protein to KD value for KRAS) ([2]; SPR, KD ratio class): A (a compound having 10 or more and less than 20 is denoted as A)

Structure (SMILES): CCO[C@@H]1C[C@H]2C(=O)NC3(CCC3)C(=O)N(C)[C@@H](C3CCCC3)C(=O)N(C)[C@H](C(=O)N3CCCCC3)CC(=O)N(C)[C@H]3CCC/C=C/c4ccc(cc4)C[C@@H](C(=O)N(C)CC(=O)N[C@@H](CCc4cc(F)c(C(F)(F)F)c(F)c4)C(=O)N2C1)N1CC/C=C\C[C@@H](C1=O)N(C)C(=O)CN(C1CC1)C(=O)[C@H]([C@@H](C)CC)NC3=O [PP2954]
- NRAS/KRAS (ratio of KD value with respect to GDP-bound NRAS wild-type protein to KD value with respect to KRAS) ([1]; class symbols): A (a compound having 10 or more and less than 20 is denoted as A)
- HRAS/KRAS (ratio of KD value with respect to GDP-bound HRAS wild-type protein to KD value with respect to KRAS) ([2]; class symbols): A (a compound having 10 or more and less than 20 is denoted as A)

Structure (SMILES): CCO[C@@H]1C[C@H]2C(=O)NC3(CCC3)C(=O)N(C)[C@@H](C3CCCC3)C(=O)N(C)[C@H](C(=O)N3CCOCC3)CC(=O)N(C)[C@@H](CC)C(=O)N[C@@H]([C@@H](C)CC)C(=O)N(C)CC(=O)N(C)[C@H]3C[C@@H](C)CCN(C3=O)[C@@H](Cc3ccc(C(F)(F)F)cc3)C(=O)N(C)CC(=O)N[C@@H](CCc3cc(F)c(C(F)(F)F)c(F)c3)C(=O)N2C1 [PP1027]
- NRAS/KRAS (ratio of KD value with respect to NRAS to KD value with respect to KRAS) [1, 3]: C (A compound having a KD ratio of 0.1 or more and less than 3 is denoted as C)
- HRAS/KRAS (ratio of KD value with respect to HRAS to KD value with respect to KRAS) [2, 4]: B (a compound having 3 or more and less than 10 is denoted as B)
